Like-named read-outs stand apart in the source and are kept apart here. Marks after values point to notes of the source that are not given here. Values belong to the compound of their own block, whether it stands above or below them.
Assays:
clinical = assay: clinical; design: species or system Japanese patients; conditions: in vivo; for AUC from 0 to 24 h of metabolite as share of regorafenib / t 1/2 (terminal half life) / t max / AUC / AUC0–24 / C max / AUC(0-t) / Cmax / half-life: human
Experimental: Patients who provided at least one evaluable pharmacokinetic sample were eligible for pharmacokinetic analyses.
Plasma concentrations of regorafenib and its metabolites were determined by fully validated liquid chromatography–tandem mass spectrometry after protein precipitation with acetonitrile/ammonium acetate buffer containing the internal standards [^2H3 ^15N] BAY 73-4506 (for regorafenib), [^2H3 ^15N] […] BAY 81-8752 (for the M5 metabolite).

[1] = test system: treatment-refractory advanced solid tumors; assay: Tumor response (RECIST version 1.0), Japan phase I study; format: in vivo, Japanese patients
Experimental: (§1) All patients who received at least one dose of regorafenib were eligible for safety analyses and were included in the efficacy analyses if they also had post-baseline efficacy data. For the safety analysis, physical examination, vital signs, use of concomitant medications, and laboratory test data were reported, and patients were routinely monitored for adverse events, which were recorded with severity and relationship to study medication according to the National Cancer Institute Common Terminology Criteria for Adverse Events version 3.0. Tumor response was assessed every 8 weeks for the first 6 cycles and every 12 weeks after Cycle 6 by Response Evaluation Criteria in Solid Tumors version 1.0, using the same imaging techniques and methods as at baseline. The response rate was defined as the proportion of patients whose best response was a confirmed partial or complete response.

[2] = design: method as in PMID 22421192; conditions: European phase I study, 160 mg cohort only, n = 12, cited from earlier work
[3] = test system: UDP-glucuronosyltransferase 1A9; design: method as in ref 11 = [11]; 11. Bayer HealthCare AG, data on file; conditions: in vitro, glucuronidation; cited from earlier work
[4] = design: method as in PMID 22421192, PMID 22568966; conditions: European phase I and II studies; cited from earlier work
[5] = Safety: adverse events (NCI CTCAE v3.0) and laboratory toxicities, Japan phase I study; design: species or system Japanese patients; conditions: in vivo
Experimental: as §1
Unacceptable toxicity was defined as any of the following events occurring during Cycle 1 and considered to be related to study drug: grade 4 neutropenia (for ≥7 days); febrile neutropenia with grade 4 neutropenia and fever; grade 4 thrombocytopenia; grade 3 or 4 nonhematologic toxicities (excluding events considered to be tolerable by the investigator). If two of the first three or three of the first six patients treated with regorafenib experienced unacceptable toxicities during Cycle 1, the safety data were reviewed by the Data Monitoring Committee, which considered whether protocol amendments were needed to address any safety concerns before subsequent patients were treated.

cytochrome p450 3A4 = test system: cytochrome p450 3A4; design: method as in ref 11 = [11]; 11. Bayer HealthCare AG, data on file; conditions: in vitro; cited from earlier work
[6] = design: method as in ref 7 = [7]; 7. Eisen T, Joenssu H, Nathan P Harper P, Wojtukiewicz M, Nicholson S, Bahl A, Tomczak P, Wagner A, Quinn D (2011) Phase II trial of the oral multi kinase inhibitor regorafenib (BAY 73-4506) as first-; conditions: European phase II study, advanced renal cell carcinoma, n = 49, cited from earlier work
[7] = any time after start of study treatment

AUC from 0 to 24 h of metabolite as share of regorafenib (clinical): 21.5%
t 1/2 (terminal half life) (clinical): 57.5 (33.7) h
t max (clinical): 35.6 (0.6–73.2) h
AUC (clinical; po, 160 mg): 3,441.8 (112.0)^a μg.h/L
AUC0–24 (clinical; po, 160 mg): 380.5/164.2 (112.0)^a μg.h/L
C max (clinical; po, 160 mg): 31.1 (167.3)^a μg/L
t max (clinical; po, 160 mg): 24.0 (2.8–71.3)^a h
Change in t max and t 1/2 between single dosing and 21-day multiple dosing (clinical): no significant change
SMILES: NC(=O)c1cc(Oc2ccc(NC(=O)Nc3ccc(Cl)c(C(F)(F)F)c3)c(F)c2)cc[n+]1[O-] [M5]

SMILES: CNC(=O)c1cc(Oc2ccc(NC(=O)Nc3ccc(Cl)c(C(F)(F)F)c3)c(F)c2)ccn1 [Regorafenib]
Complete response ([1]; 15 patients): no patient
Overall response rate ([1]; 15 patients, 95 % confidence interval 0.2–31.9 %): 7%
Median time to progression ([1]; 95 % confidence interval 1.9–12.4 months): 3.7 months
Duration of response (partial response) ([1]; one patient, pancreatic neuroendocrine tumor): 10.5 months
AUC (clinical; po, 160 mg): 34600 ng·h/mL
AUC(0-t) (clinical; po, 160 mg): 16400 ng·h/mL
Cmax (clinical; po, 160 mg): 1370 ng/mL
t 1/2 (terminal half life) (clinical; po, 160 mg): 27.4 (29.9) h
t max (clinical; po, 160 mg): 4 h
half-life (clinical; po, 160 mg, t 1/2 (terminal half life)): ~27 h
AUC(0-t) (clinical; Cycle 1 day 21, regorafenib 160 mg once daily for 21 days, N = 12, geometric mean (% coefficient of variance), read-out: AUC0–24): 33000 ng·h/mL
Cmax (clinical; Cycle 1 day 21, regorafenib 160 mg once daily for 21 days, N = 12, geometric mean (% coefficient of variance), read-out: C max): 2520 ng/mL
half-life (clinical; Cycle 1 day 21, regorafenib 160 mg once daily for 21 days, N = 12, geometric mean (% coefficient of variance), read-out: t 1/2 (terminal half life) (converted)): 30.4 h
t max (clinical; Cycle 1 day 21, regorafenib 160 mg once daily for 21 days, N = 12, median (range), read-out: t max): 3.6 h
Change in t max and t 1/2 between single dosing and 21-day multiple dosing (clinical): no significant change
Incidence of biochemical toxicities: ALT, all grades [2, 7]: 75%
Incidence of biochemical toxicities: ALT, grade 3/4 [2, 7]: 25%
Incidence of biochemical toxicities: AST, all grades [2, 7]: 75%
Incidence of biochemical toxicities: AST, grade 3/4 [2, 7]: 25%
Adverse events: Alopecia, all grades [2]: 33%
Adverse events: Alopecia, grade 3/4 [2]: 0%
Adverse events: Anorexia, all grades [2]: 50%
Adverse events: Anorexia, grade 3/4 [2]: 8%
Adverse events: Diarrhea, all grades [2]: 50%
Adverse events: Diarrhea, grade 3/4 [2]: 17%
Adverse events: Fatigue, all grades [2]: 17%
Adverse events: Fatigue, grade 3/4 [2]: 0%
Adverse events: Hand–foot skin reaction, all grades [2]: 67%
Adverse events: Hand–foot skin reaction, grade 3/4 [2]: 25%
Adverse events: Hypertension, all grades [2]: 50%
Adverse events: Hypertension, grade 3/4 [2]: 17%
Adverse events: Rash, all grades [2]: 50%
Adverse events: Rash, grade 3/4 [2]: 8%
Adverse events: Voice changes/hoarseness, all grades [2]: 42%
Adverse events: Voice changes/hoarseness, grade 3/4 [2]: 0%
Metabolizing enzyme [3]: UDP-glucuronosyltransferase 1A9 glucuronidation
Frequency of hand–foot skin reaction [4]: 67–71%
Biochemical abnormality: alkaline phosphatase (ALP) elevation ([5]; human): 93%
Biochemical abnormality: hypoalbuminemia ([5]; human): 93%
Biochemical abnormality: hypophosphatemia ([5]; human): 80%
Biochemical abnormality: proteinuria ([5]; human): 80%
Biochemical toxicity: ALP elevation, any grade ([5]; human): 14 (93) n (%)
Biochemical toxicity: ALP elevation, grade 3 or 4 ([5]; human): 2 (13) n (%)
Biochemical toxicity: ALT elevation, any grade ([5]; human): 12 (80) n (%)
Biochemical toxicity: ALT elevation, grade 3 or 4 ([5]; human): 3 (20) n (%)
Biochemical toxicity: AST elevation, any grade ([5]; human): 13 (87) n (%)
Biochemical toxicity: AST elevation, grade 3 or 4 ([5]; human): 3 (20) n (%)
Biochemical toxicity: Hypoalbuminemia, any grade ([5]; human): 14 (93) n (%)
Biochemical toxicity: Hypoalbuminemia, grade 3 or 4 ([5]; human): 0 n (%)
Biochemical toxicity: Hypocalcemia, any grade ([5]; human): 9 (60) n (%)
Biochemical toxicity: Hypocalcemia, grade 3 or 4 ([5]; human): 0 n (%)
Biochemical toxicity: Hypophosphatemia, any grade ([5]; human): 12 (80) n (%)
Biochemical toxicity: Hypophosphatemia, grade 3 or 4 ([5]; human): 4 (27) n (%)
Biochemical toxicity: Proteinuria, grade 3 or 4 ([5]; human): 1 (7) n (%)
Incidence of biochemical toxicities: ALT, grade 3/4 ([5]; human): 20%
Incidence of biochemical toxicities: AST, all grades ([5]; human): 87%
Incidence of biochemical toxicities: AST, grade 3/4 ([5]; human): 20%
Patients with at least one drug-related treatment-emergent adverse event of any grade ([5]; human): 15 patients
Treatment discontinuation for adverse event: anemia ([5]; human): 1 n
Treatment discontinuation for adverse event: liver enzyme elevation ([5]; human): 1 n
Grade of drug-related adverse event resulting in treatment reduction or interruption: ALT elevation ([5]; human, 1 cycle): 3
Grade of drug-related adverse event resulting in treatment reduction or interruption: AST elevation ([5]; human, 1 cycle): 3
Grade of drug-related adverse event resulting in treatment reduction or interruption: Hypertension ([5]; human, 1 cycle): 2
Grade of drug-related adverse event resulting in treatment reduction or interruption: Leukopenia ([5]; human, 1 cycle): 2
Grade of drug-related adverse event resulting in treatment reduction or interruption: Neutropenia ([5]; human, 1 cycle): 3
Grade of drug-related adverse event resulting in treatment reduction or interruption: Thrombocytopenia ([5]; human, 1 cycle): 2
Grade of drug-related adverse event resulting in treatment reduction or interruption: ALT elevation ([5]; human, 2 cycle): 4
Grade of drug-related adverse event resulting in treatment reduction or interruption: Hand–foot skin reaction ([5]; human, 2 cycle): 3
Grade of drug-related adverse event resulting in treatment reduction or interruption: Dental pulpitis ([5]; human, 3 cycle): 2
Grade of drug-related adverse event resulting in treatment reduction or interruption: Diarrhea ([5]; human, 3 cycle): 3
Grade of drug-related adverse event resulting in treatment reduction or interruption: Hand–foot skin reaction ([5]; human, 3 cycle): 1
Grade of drug-related adverse event resulting in treatment reduction or interruption: Hand–foot skin reaction (event cell empty, from line above) ([5]; human, 3 cycle): 1
Grade of drug-related adverse event resulting in treatment reduction or interruption: Hand–foot skin reaction ([5]; human, 7 cycle): 3
Grade of drug-related adverse event resulting in treatment reduction or interruption: Hand–foot skin reaction (event cell empty, from line above) ([5]; human, 9 cycle): 1
Grade of drug-related adverse event resulting in treatment reduction or interruption: Proteinuria ([5]; human, 9 cycle): 3
Grade of drug-related adverse event resulting in treatment reduction or interruption: Proteinuria ([5]; human, 10 cycle): 2
Grade of drug-related adverse event resulting in treatment reduction or interruption: Back pain ([5]; human, 11 cycle): 3
Grade of drug-related adverse event resulting in treatment reduction or interruption: Gingivitis ([5]; human, 18 cycle): 2
Changes in vital signs or electrocardiogram findings [5]: No clear changes
Cycle delay (start of next cycle delayed longer than 7 days) because of adverse events [5]: four
Dose reduction because of adverse events [5]: six
Drug-related adverse events leading to dose interruption or dose reduction [5]: eight
Interruption of regorafenib during daily treatment because of adverse events [5]: seven
Serious adverse events [5]: six
Serious adverse events deemed treatment-related [5]: three
Treatment-related deaths [5]: No treatment-related deaths
Metabolizing enzyme (cytochrome p450 3A4): metabolized by cytochrome p450 3A4
Incidence of biochemical toxicities: ALT, all grades [6, 7]: 39%
Incidence of biochemical toxicities: ALT, grade 3/4 [6, 7]: 2%
Incidence of biochemical toxicities: AST, all grades [6, 7]: 41%
Incidence of biochemical toxicities: AST, grade 3/4 [6, 7]: 2%
Adverse events: Alopecia, all grades ([6]; untreated): 45%
Adverse events: Alopecia, grade 3/4 ([6]; untreated): 0%
Adverse events: Anorexia, all grades ([6]; untreated): 29%
Adverse events: Anorexia, grade 3/4 ([6]; untreated): 6%
Adverse events: Diarrhea, all grades ([6]; untreated): 45%
Adverse events: Diarrhea, grade 3/4 ([6]; untreated): 10%
Adverse events: Fatigue, all grades ([6]; untreated): 53%
Adverse events: Fatigue, grade 3/4 ([6]; untreated): 8%
Adverse events: Hand–foot skin reaction, all grades ([6]; untreated): 71%
Adverse events: Hand–foot skin reaction, grade 3/4 ([6]; untreated): 33%
Adverse events: Hypertension, all grades ([6]; untreated): 49%
Adverse events: Hypertension, grade 3/4 ([6]; untreated): 6%
Adverse events: Rash, all grades ([6]; untreated): 39%
Adverse events: Rash, grade 3/4 ([6]; untreated): 6%
Adverse events: Voice changes/hoarseness, all grades ([6]; untreated): 35%
Adverse events: Voice changes/hoarseness, grade 3/4 ([6]; untreated): 0%

AUC from 0 to 24 h of metabolite as share of regorafenib (clinical): 47.3%
t 1/2 (terminal half life) (clinical): 29.5 (24.1) h
t max (clinical): 4.3 (0.6–47.9) h
AUC (clinical; po, 160 mg): 7,820.6 (301.2) μg.h/L
AUC0–24 (clinical; po, 160 mg): 3,697.2 (340.5) μg.h/L
C max (clinical; po, 160 mg): 273.3 (388.9) μg/L
t 1/2 (terminal half life) (clinical; po, 160 mg): 24.8 (27.7) h
Change in t max and t 1/2 between single dosing and 21-day multiple dosing (clinical): no significant change
SMILES: CNC(=O)c1cc(Oc2ccc(NC(=O)Nc3ccc(Cl)c(C(F)(F)F)c3)c(F)c2)cc[n+]1[O-] [M2]
